Reference: ChEMBL document CHEMBL1148201, “Penasulfate A, a new alpha-glucosidase inhibitor from a marine sponge Penares sp” (J Nat Prod, 2004)

Legend:
[1] = Inhibition of yeast alpha-glucosidase G7256; set-up: species or system Saccharomyces cerevisiae
[2] = Inhibition of Saccharomyces cerevisiae recombinant alpha-glucosidase G0660

SMILES	IC50 [1] [µg/mL]	IC50 [2] [µg/mL]
CCCC[C@H]1CCCCCCCCC[C@H](OS(=O)(=O)[O-])[C@H](OS(=O)(=O)[O-])[C@@H](OS(=O)(=O)[O-])CCCCCCCCCCCCC(=O)N2CCC[C@H]2C(=O)O1.[Na+].[Na+].[Na+] [PENAROLIDE SULFATE A1]	1.2	
CCC[C@H]1CCCCCCCCC[C@H](OS(=O)(=O)[O-])[C@H](OS(=O)(=O)[O-])[C@@H](OS(=O)(=O)[O-])CCCCCCCCCCCCCC(=O)N2CCC[C@H]2C(=O)O1.[Na+].[Na+].[Na+] [PENAROLIDE SULFATE A2]	1.5	
CCCCCC[C@H](C)CCCCCC[C@H](OS(=O)(=O)[O-])[C@@H](CCCCCCCCCCCCC(=O)N1CCCC[C@@H]1C(=O)OC)OS(=O)(=O)[O-].[Na+].[Na+] [PENASULFATE A]		3.5
